The record followed here is ChEMBL document CHEMBL1127557, “Novel potassium-channel openers: preparation and pharmacological evaluation of racemic and optically active N-(6-amino-3-pyridyl)-N'-bicycloalkyl-N"-cyanoguanidine derivatives” (J Med Chem, 1994).

For data set [1], the species on record is Rattus norvegicus. Put plainly: Compound was tested for vasorelaxant activity on the basis of ability to relax endothelium-denuded rat aortic strips toned with 20 mM KCl. The format is functional, Aorta.
The subject of data set [2] is Rattus norvegicus. The data set can be described thus: Compound was tested for hypotensive activity in anesthetized normotensive rats by intravenous injection. Systolic blood pressure measured 30 min after injection. The format is functional.
Data set [3] can be described thus: Ratio between Na+ and K+ excretion values at a dose of 1 mg/kg. Type of data set: ADME, organism-based. Set-up: dose 1 mg/kg. Particulars: in vivo.
For data set [4], the species on record is Rattus norvegicus. Put plainly: Compound was tested for oral diuretic effect on spontaneously hypertensive rats by measuring the urinary volume at vehicle concentration. Type of data set: functional, Urine.
The subject of data set [5] is Rattus norvegicus. Put plainly: Compound was tested for hypotensive activity in anesthetized normotensive rats by intravenous injection, Systolic blood pressure measured 30 min after injection. The format is functional. As to conditions: 0.5 h.
Data set [6] in a line: Ratio between Na+ and K+ excretion values at a dose of 5 mg/kg. The format is ADME, organism-based. Also on record: dose 5 mg/kg. Particulars: in vivo.
Data set [7] deals with Rattus norvegicus. The data set can be described thus: Compound was tested for oral diuretic effect on spontaneously hypertensive rats by measuring the potassium excretion at 1 mg/kg concentration. Type of data set: ADME, organism-based, Urine. Set-up: dose 1 mg/kg, route oral. As to conditions: in vivo.
Data set [8] has as its system Rattus norvegicus. Put plainly: Compound was tested for oral diuretic effect on spontaneously hypertensive rats by measuring the urinary volume at 5 mg/kg concentration. Type of data set: functional, Urine.
Data set [9] has as its system Rattus norvegicus. The data set can be described thus: Compound was tested for oral diuretic effect on spontaneously hypertensive rats by measuring the urinary volume at 1 mg/kg concentration. Type of data set: functional, Urine.
In data set [10] the test system is Rattus norvegicus. Put plainly: Compound was tested for oral diuretic effect on spontaneously hypertensive rats by measuring the potassium excretion at 5 mg/kg concentration. Type of data set: ADME, organism-based, Urine. Also on record: dose 5 mg/kg, route oral. As to conditions: in vivo.
In data set [11] the test system is Rattus norvegicus. Put plainly: Compound was tested for oral diuretic effect on spontaneously hypertensive rats by measuring the excretion of sodium at 5 mg/kg concentration. Type of data set: ADME, organism-based, Urine. Set-up: dose 5 mg/kg, route oral. As to conditions: in vivo.
Data set [12] concerns Rattus norvegicus. Put plainly: Compound was tested for oral diuretic effect on spontaneously hypertensive rats by measuring the excretion of sodium at 1 mg/kg concentration. Also on record: dose 1 mg/kg, route oral. Particulars: in vivo. The format is ADME, organism-based, Urine.
The species entered for data set [13] is Rattus norvegicus. The data set can be described thus: Compound was tested for oral diuretic effect on spontaneously hypertensive rats by measuring the excretion of sodium at vehicle concentration. Type of data set: ADME, organism-based, Urine. Particulars: in vivo.
The species entered for data set [14] is Rattus norvegicus. The data set can be described thus: Compound was tested for oral diuretic effect on spontaneously hypertensive rats by measuring the potassium excretion at vehicle concentration. The format is ADME, organism-based, Urine. Particulars: in vivo.
In data set [15] the test system is Rattus norvegicus. The data set can be described thus: Compound was tested for oral diuretic effect on spontaneously hypertensive rats by measuring the excretion of sodium at 5 mg/kg concentration. As to conditions: in vivo. The format is ADME, organism-based, Urine. Also on record: dose 5 mg/kg, route oral.
Where [16] appears, read: Rattus norvegicus, Blood, iv, 0.5 h, read-out: ED30.

On to `Cl.N#CN/C(=N\C1CC2CCC1C2)Nc1ccc(N)nc1` (stereo not given), for which it took 593 nM to reach half-maximal inhibition in the data set listed under Rattus norvegicus [1] (Rattus norvegicus, Aorta) (IC50). The ED30 in the data set on Rattus norvegicus [2] (setting [16]) came to 0.74 mg/kg.

For the molecule `N#CN/C(=N\[C@H]1C[C@H]2CC[C@@H]1C2)Nc1ccc(N)nc1`, in the data set listed under Rattus norvegicus [1], it took 90 nM to reach half-maximal inhibition (IC50). Moreover, the ED30 with Rattus norvegicus [2] (setting [16]) was determined as 0.1 mg/kg.

In the data set listed under Rattus norvegicus [1], `C[C@]12CC[C@H](C[C@@H]1/N=C(\NC#N)Nc1ccc(N)nc1)C2.Cl` showed a concentration for half-maximal inhibition (IC50) of 71 nM. The ED30 in the data set on Rattus norvegicus [2] stood at 0.28 mg/kg.

Molecule `C[C@]12CC[C@H](C[C@@H]1/N=C(\NC#N)Nc1ccc(N)nc1)C2` gave an IC50 in the data set filed under Rattus norvegicus [1] (Rattus norvegicus, Aorta) of 118 nM. In the data set with Rattus norvegicus [2] (setting [16]), the ED30 amounted to 0.18 mg/kg.

For `Cl.N#CN/C(=N\[C@@H]1CC2CCC1C2)Nc1ccc(N)nc1` (mixture of isomers), the Ratio was 1.08 in [3] and 0.5 in [6]. Further, the Urinary volume in the data set filed under Rattus norvegicus [4] was 5.15 ml kg-1 5hr-1; with Rattus norvegicus [8], 4.68 ml kg-1 5hr-1; in the data set on Rattus norvegicus [9], 8.77 ml kg-1 5hr-1. Besides, in the data set with Rattus norvegicus [5], the ED30 was 0.51 mg/kg. Moreover, the “K+ excretion” value is 1.35 m equiv 5hr-1 kg-1 with Rattus norvegicus [7], 1.249 m equiv 5hr-1 kg-1 with Rattus norvegicus [10] and 1.078 m equiv 5hr-1 kg-1 in the data set listed under Rattus norvegicus [14]. Moreover, the “Na+ excretion” value in the data set with Rattus norvegicus [11] was determined as 0.694 m equiv 5hr-1 kg-1; in the data set on Rattus norvegicus [12], 1.523 m equiv 5hr-1 kg-1; in the data set filed under Rattus norvegicus [13] it was 1.357 m equiv 5hr-1 kg-1.

On to `Cl.N#CN/C(=N\[C@H]1C[C@H]2CC[C@@H]1C2)Nc1ccc(N)nc1` (racemic), for which the “Na+ excretion” value with Rattus norvegicus [15] was 1.865 m equiv 5hr-1 kg-1; with Rattus norvegicus [12] it was 0.89 m equiv 5hr-1 kg-1; in the data set filed under Rattus norvegicus [13], 1.072 m equiv 5hr-1 kg-1. In addition, the IC50 in the data set listed under Rattus norvegicus [1] turned out to be 392 nM. Also, the Ratio amounted to 1.54 in data set [3] and 1.27 in data set [6]. The Urinary volume in the data set listed under Rattus norvegicus [4] came to 6.84 ml kg-1 5hr-1; with Rattus norvegicus [8], 18.37 ml kg-1 5hr-1; in the data set on Rattus norvegicus [9] it was 5.53 ml kg-1 5hr-1. Moreover, the “K+ excretion” value in the data set on Rattus norvegicus [7] is on record as 0.646 m equiv 5hr-1 kg-1; in the data set with Rattus norvegicus [10], 1.46 m equiv 5hr-1 kg-1; in the data set filed under Rattus norvegicus [14], 0.8 m equiv 5hr-1 kg-1. In addition, in the data set on Rattus norvegicus [2] (setting [16]), the ED30 came to 0.17 mg/kg.

In the case of `C[C@]12CC[C@H](C[C@@H]1/N=C(\NC#N)Nc1ccc(N)nc1)C2.Cl` (racemic), the “Na+ excretion” value in the data set with Rattus norvegicus [15] was found to be 0.311 m equiv 5hr-1 kg-1; with Rattus norvegicus [12] it was 0.8 m equiv 5hr-1 kg-1; in the data set filed under Rattus norvegicus [13], 1.072 m equiv 5hr-1 kg-1. Moreover, half-maximal inhibition in the data set listed under Rattus norvegicus [1] (IC50) required 79 nM. In addition, the Ratio in data set [3] amounted to 1.08; in [6], 0.59. The Urinary volume is on record as 6.84 ml kg-1 5hr-1 in the data set filed under Rattus norvegicus [4], 7.31 ml kg-1 5hr-1 in the data set on Rattus norvegicus [8] and 6.92 ml kg-1 5hr-1 in the data set with Rattus norvegicus [9]. The “K+ excretion” value in the data set with Rattus norvegicus [7] is listed as 0.747 m equiv 5hr-1 kg-1; with Rattus norvegicus [10], 0.515 m equiv 5hr-1 kg-1; in the data set listed under Rattus norvegicus [14], 0.8 m equiv 5hr-1 kg-1. Further, the ED30 with Rattus norvegicus [2] (setting [16]) was determined as 0.2 mg/kg.

The molecule `N#CN/C(=N\[C@@H]1C[C@H]2CC[C@@H]1C2)Nc1ccc(N)nc1` (stereo in doubt; (+)-9) yielded an IC50 in the data set listed under Rattus norvegicus [1] of 267 nM. Further, in the data set with Rattus norvegicus [2], the ED30 is 0.4 mg/kg.

`N#CN/C(=N\[C@@H]1C[C@H]2CC[C@@H]1C2)Nc1ccc(N)nc1` (stereo in doubt; (-)-9) yielded a concentration for half-maximal inhibition (IC50) in the data set filed under Rattus norvegicus [1] (Rattus norvegicus, Aorta) of 278 nM. Also, in the data set on Rattus norvegicus [2] (setting [16]), the ED30 was 0.57 mg/kg.

In the data set listed under Rattus norvegicus [1] (Rattus norvegicus, Aorta), `CC1(C)Oc2ccc(C#N)cc2[C@@H](N2CCCC2=O)[C@@H]1O` [CROMAKALIM] gave an IC50 of 110 nM. In addition, the ED30 with Rattus norvegicus [2] (setting [16]) was found to be 0.11 mg/kg.

`CC(N/C(=N\C#N)Nc1ccncc1)C(C)(C)C` (stereo not given) [PINACIDIL ANHYDROUS]: the “Na+ excretion” value was found to be 0.078 m equiv 5hr-1 kg-1 in the data set on Rattus norvegicus [15], 1.27 m equiv 5hr-1 kg-1 with Rattus norvegicus [12] and 1.357 m equiv 5hr-1 kg-1 in the data set listed under Rattus norvegicus [13]. Also, the midpoint of inhibition in the data set listed under Rattus norvegicus [1] (Rattus norvegicus, Aorta), the IC50, lay at 380 nM. The Ratio in data set [3] is listed as 0.78; in data set [6], 0.12. Also, the Urinary volume was determined as 5.15 ml kg-1 5hr-1 in the data set listed under Rattus norvegicus [4], 2.56 ml kg-1 5hr-1 in the data set on Rattus norvegicus [8] and 7.62 ml kg-1 5hr-1 in the data set on Rattus norvegicus [9]. The “K+ excretion” value in the data set on Rattus norvegicus [7] is listed as 1.546 m equiv 5hr-1 kg-1; in the data set on Rattus norvegicus [10] it was 0.584 m equiv 5hr-1 kg-1; in the data set listed under Rattus norvegicus [14], 1.078 m equiv 5hr-1 kg-1. Also, the ED30 in the data set on Rattus norvegicus [2] (setting [16]) came to 0.15 mg/kg.

What is called IC50 is the concentration at which inhibition is half-maximal.
